Assay: Inhibition of human cytomegalovirus protease by scintillation proximity assay
Parameters: species or system Human betaherpesvirus 5

SMILES	IC50 [µM]
CCCCCc1cc(O)cc(O)c1C(=O)Oc1cc(O)c(C(=O)Oc2cc(O)c(C(=O)O)c(CCC)c2)c(CCC)c1 [CYTONIC ACID A]	43
CCCCCc1cc(OC(=O)c2c(O)cc(OC(=O)c3c(O)cc(O)cc3CCC)cc2CCC)cc(O)c1C(=O)O [CYTONIC ACID B]	11
